Values quoted from earlier work in patent publication US20250320459A1, “FUNCTIONALIZED MOLECULAR LAYERS AND SCAFFOLDS, AND METHODS OF PREPARATION AND USE THEREOF” (PURDUE RESEARCH FOUNDATION, priority 2022, published 2025).

Target: WGA

Compound: CC(=O)N[C@H]1C(O)O[C@H](CO)[C@@H](O)[C@@H]1O (stereo partly drawn) [GlcNAc, N-acetyl-D-glucosamine]
- KD, monovalent interactions between WGA and GlcNAc (monovalent): micromolar to millimolar range
- KD, multivalent interactions between WGA and GlcNAc (multivalent): nanomolar range
